# Laboratory results as given in paper PMC11892739, “Site-specific molecular glues for the 14-3-3/Tau pS214 protein–protein interaction via reversible covalent imine tethering” (RSC Medicinal Chemistry, 2025).
# Molecular target: T1, 14-3-3ζ/CFTR peptide (Homo sapiens, UniProt P63104)
# T1 construct: made in house; host or cells: NiCo21 (DE3) E. coli
# Test: FA peptide screen, 14-3-3ζ titration to client peptide and compound: CFTR
# Type: binding
# Details: 250 μM compound, 100 nM peptide; +1 Val
# Procedure: Since the hub protein 14-3-3 binds to hundreds of phosphoprotein partners, selectivity of PPI stabilization is a major challenge. The interplay of chemical reactivity, and the topology and functionality of the composite binding pocket shaped by 14-3-3 and Tau potentially provide entries towards selective stabilization. […] Here, 14-3-3ζ was titrated to a constant concentration of client peptide (100 nM) and compound (250 μM) to determine the SF250μM values for the particular 14-3-3 PPI. A variety of 14-3-3 binding proteins was represented in this client panel whereby the size and hydrophobicity of the +1 amino acid were varied. […]
# chromatography (HisTrap high performance cartridges, Cytiva). […] Dialyzed protein was concentrated to ∼40 mg/mL, analyzed by Q -Tof LC/MS, and aliquots were flash -frozen for storage at −80 °C. […]
# 0.1% (v/v) Tween20, 0.1% (w/v) BSA). […] Measurements were performed directly after plate preparation, using a Tecan SPARK plate reader at room temperature ( λex: 485±20 nm; λem: 535±25 nm; mirror: automatic; flashes: 30; settle time: 1 ms; gain: optimal; Z -position: calculated from well). […] All data were analyzed using GraphPad Prism (10.0.1) and fitted with a four -parameter logistic model (4PL) to determine binding affinities (dissociation constant, KD). […]
# Fluorescence Anisotropy – peptide screen […]
# T1 sequence (P63104 whole entry): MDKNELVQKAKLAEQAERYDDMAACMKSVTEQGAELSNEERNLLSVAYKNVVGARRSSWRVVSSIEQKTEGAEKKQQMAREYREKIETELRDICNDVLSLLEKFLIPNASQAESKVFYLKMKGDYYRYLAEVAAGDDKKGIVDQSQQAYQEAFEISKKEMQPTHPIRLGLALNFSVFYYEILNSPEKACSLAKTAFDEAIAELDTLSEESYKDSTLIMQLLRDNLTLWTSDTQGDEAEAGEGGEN
# T1 sequence (P13569 747-774 partner): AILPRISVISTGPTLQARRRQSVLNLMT
smiles,measurement,value
CCc1ccc(-c2nccn2-c2ccc(C=O)c(Br)c2)cc1 [Compound 18],stabilization of 14-3-3/CFTR peptide (in words),minor off-target effects
